The values that follow are results of earlier work, collected in paper PMC12078333, “Pharmacokinetic evaluation and bioavailability of KPT-335 (Verdinexor) in cats” (Frontiers in Veterinary Science, 2025).

The conditions of this data set: dogs; cited from earlier work.

As to `O=C(/C=C\n1cnc(-c2cc(C(F)(F)F)cc(C(F)(F)F)c2)n1)NNc1ccccn1` [KPT-335], the maximum safe dosage is 1.75 mg/kg BW.
